According to patent US20030153731A1, “Endothelial cell-leukocyte adhesion molecules (ELAMs) and molecules involved in leukocyte adhesion (MILAs)” (priority 1989, published 2003):

T1: 1,3-fucosyl transferase in extracts from CHO cells transfected with clone 7.2 (Homo sapiens, UniProt P22083)
T1 construct: expressed in transfected cells; host or cells: CHO cells transfected with clone 7.2; Triton X-100 lysate
T1 sequence (P22083 1-405 isoform P22083-2): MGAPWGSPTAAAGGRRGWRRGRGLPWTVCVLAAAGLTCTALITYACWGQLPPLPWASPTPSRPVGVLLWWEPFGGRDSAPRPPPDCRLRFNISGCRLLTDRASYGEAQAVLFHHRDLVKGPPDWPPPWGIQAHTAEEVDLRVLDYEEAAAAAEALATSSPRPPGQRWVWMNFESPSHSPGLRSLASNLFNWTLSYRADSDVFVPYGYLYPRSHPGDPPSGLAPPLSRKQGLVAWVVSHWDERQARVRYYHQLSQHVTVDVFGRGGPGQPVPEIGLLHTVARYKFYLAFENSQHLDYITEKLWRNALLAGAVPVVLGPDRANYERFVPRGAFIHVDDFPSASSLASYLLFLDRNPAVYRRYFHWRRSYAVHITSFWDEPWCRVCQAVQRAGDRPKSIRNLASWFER


Key:
[1] = molecular target: T1, 1,3-fucosyl transferase in extracts from CHO cells transfected with clone 7.2; experiment: fucosyl transferase enzyme assay: linking 14C-fucose to acceptor molecules; assay type: biochemical; conditions: for Efficiency of Fucosylation: enzyme freshly produced from transfected CHO cells, 1 hour at 37° C; for linking of fucose to acceptor by the induced enzyme: extract of CHO cells transfected with clone 7.2
Procedure: The assays tested the ability of the enzyme to link radioactively labelled fucose to an acceptor molecule. We performed the assays as follows.
We prepared assay samples containing 10 μl enzyme, 8 μl cocktail and 2 μl 10×acceptor. We prepared the enzyme by isolating about 1.5 million CHO cells transfected with clone 7.2 and lysing them by sonication for 15 seconds in 150 μl ice-cold 1% Triton X-100 in water. The cocktail contained 75 μM ^14C-GDP fucose, 100 mM ATP, 500 mM L-fucose, 1 M MnCl2 and 1 M cacodylate at pH 6.2. 10×acceptor contained, variously, 200 mM LacNAc, Lac-N-biose, or lactose, 250 mM phenyl-β-D-galactoside, or 50 mM 2′-fucosyllactose. We incubated the assay samples for 1 hour at 37° C. We stopped the reaction by addition of 20 μl ethanol. We diluted the sample with 560 μl water and centrifuged in an EPPENDORF centrifuge for 5 minutes at high speed.
We had prepared a DOWEX 1×2-400 column (Sigma Chemical Co.) to separate the unconverted ^14C fucose-GDP from the converted. We loaded the matrix into a large column and washed it with 10 volumes of iN NaOH, followed by 5 volumes of water, followed by 10 volumes of 5% concentrated formic acid. Then we repeated this wash cycle. We used this material to create small columns of 0.4 ml. We prepared the small columns for use by washing them with 10 volumes of water.
We loaded 200 μl of the sample onto the small column, collected the eluate, rinsed with 2 ml water and collected it into the eluate. We determined the radioactivity of this eluate by scintillation counting.

HL-60 cells; RAMOS cells = experiment: cell binding to rsELAM1-coated plates; assay type: cell-based, human
Procedure: To a 6 cm diameter Petri dish of bacteriologic plastic (e.g., Falcon 110070) we added 2.5 ml of 50 mM Tris buffer, pH 9.5. To this we added 10 μg of pure rsELAM1. We incubated the plate for 60 minutes at room temperature to allow the rsELAM1 to bind to the plate. Then we aspirated the medium and replaced it with PBS containing 10 mg/ml bovine serum albumin. We incubated the plates overnight at 40 in this solution to block remaining protein binding sites on the plates. We warmed the plates to room temperature, washed them with medium containing 10% fetal calf serum, and incubated them with 2 ml of cells (2×10^6 ml^−1) for 20 minutes. We aspirated the medium and washed the plates twice with 3 ml each of medium (RPMI 1640 with 10% serum). Then we examined the plates by microscopy.
A second assay would test the ability of a small molecule to inhibit cell binding to ELAM itself. We have developed such an assay with rsELAM1 which works in 96 well microtiter plates. These plates, made of bacteriologic plastic (e.g. Linbro/Titertek #76-232-050), are incubated with 0.5 μg per well of rsELAM1 in 50 μl of 15 mM sodium carbonate/35 mM sodium bicarbonate, pH 9.2, overnight at 40. The plates are then blocked for one hour at room temperature with PBS containing 10 mg/ml of bovine serum albumin, and then adhesion assays performed as described in Example VIII using, e.g., HL-60 cells, 2×10^6/ml, 50 μl per well. Under these conditions HL-60 cells bind well to rsELAM1, providing a convenient microassay for screening. One would identify inhibitors by their ability to inhibit HL-60 binding to the plate. Alternatively, one could use an ELAM ligand in this assay, using as the probe a cell line that stably expresses an ELAM.

Efficiency of Fucosylation [1] | linking of fucose to acceptor by the induced enzyme [1] | Molecule | binding of HL-60 cells to rsELAM1 in 96 well microtiter plates (HL-60 cells; RAMOS cells; 0.5 μg per well rsELAM1, HL-60 2×10^6/ml, 50 μl per well) | binding of HL-60 cells to rsELAM1-coated plates (HL-60 cells; RAMOS cells; 6 cm Petri dish, 10 μg rsELAM1) | binding of RAMOS cells to rsELAM1-coated plates (HL-60 cells; RAMOS cells; 6 cm Petri dish, 10 μg rsELAM1)
Not detectable | did not link fucose | OC[C@H]1O[C@@H](Oc2ccccc2)[C@H](O)[C@@H](O)[C@H]1O [PhβDgal, phenyl-β-D-galactoside] |  |  | 
290 picomoles/mg Total protein · h | linked fucose | OC[C@H]1O[C@@H](O[C@H]2[C@H](O)[C@@H](O)C(O)O[C@@H]2CO)[C@H](O)[C@@H](O)[C@H]1O (some centres unmarked) [Lactose, lactose] |  |  | 

The next lines start with the molecule.

Molecule | Efficiency of Fucosylation [1] | linking of fucose to acceptor by the induced enzyme [1] | binding of HL-60 cells to rsELAM1 in 96 well microtiter plates (HL-60 cells; RAMOS cells; 0.5 μg per well rsELAM1, HL-60 2×10^6/ml, 50 μl per well) | binding of HL-60 cells to rsELAM1-coated plates (HL-60 cells; RAMOS cells; 6 cm Petri dish, 10 μg rsELAM1) | binding of RAMOS cells to rsELAM1-coated plates (HL-60 cells; RAMOS cells; 6 cm Petri dish, 10 μg rsELAM1)
CC(=O)N[C@H]1C(O)O[C@H](CO)[C@@H](O[C@@H]2O[C@H](CO)[C@H](O)[C@H](O)[C@H]2O)[C@@H]1O (some centres unmarked) [LacNAc] | 1110 picomoles/mg Total protein · h | linked fucose |  |  | 
CC(=O)N[C@@H]1[C@@H](O[C@@H]2O[C@H](CO)[C@H](O)[C@H](O)[C@H]2O)[C@H](O)[C@@H](CO)O[C@@H]1O [Lac-N-Biose, Lac-N-biose] | 76 picomoles/mg Total protein · h | did not link fucose |  |  | 
rsELAM1: portion of the extracellular domain of ELAM1 encoded by nucleotides 141 to 1790 of FIG. 1 (protein, UniProt P16581 22-556, looked up, extracellular domain) extracellular domain: WSYNTSTEAMTYDEASAYCQQRYTHLVAIQNKEEIEYLNSILSYSPSYYWIGIRKVNNVWVWVGTQKPLTEEAKNWAPGEPNNRQKDEDCVEIYIKREKDVGMWNDERCSKKKLALCYTAACTNTSCSGHGECVETINNYTCKCDPGFSGLKCEQIVNCTALESPEHGSLVCSHPLGNFSYNSSCSISCDRGYLPSSMETMQCMSSGEWSAPIPACNVVECDAVTNPANGFVECFQNPGSFPWNTTCTFDCEEGFELMGAQSLQCTSSGNWDNEKPTCKAVTCRAVRQPQNGSVRCSHSPAGEFTFKSSCNFTCEEGFMLQGPAQVECTTQGQWTQQIPVCEAFQCTALSNPERGYMNCLPSASGSFRYGSSCEFSCEQGFVLKGSKRLQCGPTGEWDNEKPTCEAVRCDAVHQPPKGLVRCAHSPIGEFTYKSSCAFSCEEGFELHGSTQLECTSQGQWTEEVPSCQVVKCSSLAVPGKINMSCSGEPVFGTVCKFACPEGWTLNGSAARTCGATGHWSGLLPTCEAPTESNIP |  |  | bind well | bind to rsELAM1-coated plates | do not bind to these plates
